TGI data for 14 molecules are collected here from PubChem BioAssay (NCI).

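Following 48 hours of exposure in 96-well plates, responses at five concentrations were used to interpolate endpoints linearly. TGI: total growth inhibition.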

Some test systems named below: COLO 205 colon; HL-60(TB) leukemia; HS 578T breast; IGROV1 ovarian; MDA-MB-231 breast; NCI-H522 lung; OVCAR-3 ovarian; SK-MEL-2 melanoma; SK-MEL-5 melanoma; UO-31 renal.
What all share (assay): inhibition of tumour cell growth, NCI panel, 48 h

Take `Cc1nccn1S(=O)(=O)c1ccc(Cl)cc1`: the TGI with COLO 205 colon is 40.2 µM; in the test on HL-60(TB) leukemia, 60.5 µM; in the test on HS 578T breast it was more than 100 µM; in the test with IGROV1 ovarian, more than 100 µM; in the test on MDA-MB-231 breast, 78.9 µM; in the test with NCI-H522 lung it was more than 100 µM. Besides, the TGI in the test on OVCAR-3 ovarian, in the test with SK-MEL-2 melanoma, in the test with SK-MEL-5 melanoma and in the test with UO-31 renal was more than 100 µM in each case.
Consider `Nc1ccc(C(=O)O)cc1`, for which the TGI in the test on COLO 205 colon, in the test with HL-60(TB) leukemia, with HS 578T breast, in the test with IGROV1 ovarian, in the test with MDA-MB-231 breast and with NCI-H522 lung was more than 100 µM throughout. In addition, the TGI in the test on OVCAR-3 ovarian, with SK-MEL-2 melanoma, in the test on SK-MEL-5 melanoma and in the test with UO-31 renal was more than 100 µM in each case.
Regarding `CC(C)=CCC[C@@H](C)C1=C(O)C(Nc2ccccc2)=C(C)C(=O)C1=O`, the TGI is more than 61.8 µM in the test with COLO 205 colon; 24.4 µM in the test on HL-60(TB) leukemia; more than 100 µM in the test on HS 578T breast; more than 100 µM with IGROV1 ovarian; more than 100 µM in the test with MDA-MB-231 breast; more than 52.2 µM in the test with OVCAR-3 ovarian. The values for the TGI in the test on SK-MEL-2 melanoma, in the test with SK-MEL-5 melanoma and with UO-31 renal were more than 89.9 µM, 55.6 µM and 46.4 µM, respectively.
With `CC(=O)c1c(O)cc(O)c(-c2c(C)cc(O)c3c2C(=O)c2cccc(O)c2C3=O)c1O`, the TGI in the test with HL-60(TB) leukemia stood at 79.7 µM; with HS 578T breast it was 34.6 µM; in the test on IGROV1 ovarian, 29.8 µM; with MDA-MB-231 breast, 41.1 µM; in the test with NCI-H522 lung it was 24.7 µM; in the test with OVCAR-3 ovarian it was 56.2 µM. The TGI in the test with SK-MEL-2 melanoma worked out at 34.2 µM; in the test on UO-31 renal, 27.9 µM.
For `COc1cccc(N(CN2C(=O)CCC2OC)C(C)=O)c1` (stereo unspecified), the TGI with COLO 205 colon is more than 100 µM; in the test with HL-60(TB) leukemia, 49.2 µM; in the test with HS 578T breast, more than 100 µM; in the test on MDA-MB-231 breast, more than 100 µM; with OVCAR-3 ovarian it was more than 100 µM; in the test with SK-MEL-2 melanoma, more than 100 µM. For the same molecule, the TGI in the test with SK-MEL-5 melanoma and in the test on UO-31 renal was more than 100 µM each time.
With `CCCCCCCCCCCCCCCCCCNc1nc(=O)n(C2CC(OP(=O)(O)OCC3OC(n4cc(F)c(=O)[nH]c4=O)CC3O)C(CO)O2)cc1F` (stereo unspecified), the TGI in the test with COLO 205 colon was more than 100 µM; with HL-60(TB) leukemia it was 20.3 µM; in the test with HS 578T breast it was more than 100 µM; in the test on IGROV1 ovarian it was more than 100 µM; in the test with MDA-MB-231 breast it was more than 100 µM; in the test on NCI-H522 lung, more than 100 µM. Also, the TGI in the test on OVCAR-3 ovarian is more than 100 µM; in the test with SK-MEL-2 melanoma, 71 µM; in the test with SK-MEL-5 melanoma it was more than 100 µM; in the test with UO-31 renal, 44.2 µM.
For the molecule `CC(C)(C)OC(=O)NNCC(O)COc1ccccc1` (stereo unspecified), the TGI in the test on COLO 205 colon, in the test with HL-60(TB) leukemia, in the test with HS 578T breast, in the test on IGROV1 ovarian, in the test with MDA-MB-231 breast and in the test with NCI-H522 lung was more than 100 µM each time. Besides, the TGI in the test on OVCAR-3 ovarian, with SK-MEL-2 melanoma, with SK-MEL-5 melanoma and in the test on UO-31 renal was more than 100 µM each time.
For `Fc1ccc2c(c1)nc1n2C(c2c(F)cccc2F)SC1` (stereo unspecified), the TGI was more than 100 µM in the test with COLO 205 colon; 70 µM in the test with HL-60(TB) leukemia; more than 100 µM with HS 578T breast; more than 100 µM in the test with IGROV1 ovarian; more than 100 µM in the test on MDA-MB-231 breast; more than 100 µM in the test with NCI-H522 lung. Also, the TGI in the test on OVCAR-3 ovarian is more than 100 µM; in the test on SK-MEL-2 melanoma, more than 100 µM; in the test with SK-MEL-5 melanoma, 68.3 µM; in the test on UO-31 renal it was more than 100 µM.
For `CCOP(=O)(Cc1nc(C#N)c(N)o1)OCC`, the TGI in the test with COLO 205 colon, in the test with HL-60(TB) leukemia, in the test with HS 578T breast, in the test with IGROV1 ovarian, in the test on MDA-MB-231 breast and with NCI-H522 lung was more than 100 µM in each case. In addition, the TGI with OVCAR-3 ovarian, in the test with SK-MEL-2 melanoma and in the test on SK-MEL-5 melanoma was more than 100 µM each time.
Turning to `Cc1ccsc1/C=N/Nc1cc(C)c2ccccc2n1`, the TGI was 20.9 µM in the test on COLO 205 colon; 34.4 µM in the test on HL-60(TB) leukemia; 38.6 µM with HS 578T breast; 6.33 µM in the test on IGROV1 ovarian; 12.5 µM with MDA-MB-231 breast; 26.6 µM in the test on OVCAR-3 ovarian. The figures for the TGI in the test on SK-MEL-2 melanoma, with SK-MEL-5 melanoma and with UO-31 renal were 51.2 µM, 9 µM and 36.1 µM, respectively.
Turning to `COc1cc2nc(-c3cccs3)nc(N3C(c4cc(OC)c(OC)c(OC)c4)=NNC(=O)c4ccccc43)c2cc1OC`, the TGI in the test with COLO 205 colon was more than 100 µM; in the test on HL-60(TB) leukemia it was more than 100 µM; with HS 578T breast it was more than 100 µM; in the test on IGROV1 ovarian, more than 100 µM; with MDA-MB-231 breast, 40.6 µM; with NCI-H522 lung, more than 100 µM. The TGI is 50.2 µM in the test on OVCAR-3 ovarian, more than 100 µM in the test on SK-MEL-2 melanoma, more than 100 µM in the test on SK-MEL-5 melanoma and more than 100 µM with UO-31 renal.
Turning to `ClC1=C(Cl)C2OC3C=CCC3OC2C(Cl)=C1Cl` (stereo unspecified), the TGI with HL-60(TB) leukemia was more than 100 µM; in the test on HS 578T breast, 89.7 µM; with IGROV1 ovarian it was more than 100 µM; with MDA-MB-231 breast, more than 100 µM; with NCI-H522 lung, more than 100 µM; with OVCAR-3 ovarian it was more than 100 µM. The TGI in the test on SK-MEL-2 melanoma is 48.1 µM; in the test on SK-MEL-5 melanoma it was more than 100 µM; in the test with UO-31 renal, more than 100 µM.
`Nc1ccn(CC(O)c2cc3ccccc3[nH]2)c(=O)n1` (stereo unspecified): the TGI in the test with COLO 205 colon, with HL-60(TB) leukemia, with HS 578T breast, in the test on IGROV1 ovarian, with MDA-MB-231 breast and in the test with NCI-H522 lung was more than 100 µM in each case. Further, the TGI in the test with OVCAR-3 ovarian, with SK-MEL-2 melanoma, in the test with SK-MEL-5 melanoma and in the test on UO-31 renal was more than 100 µM in each case.
With `CNC(=O)C1OC(n2cnc3c(NCc4cccc(I)c4)nc(Cl)nc32)C(O)C1O` (stereo unspecified), the TGI is 82.6 µM with COLO 205 colon; more than 100 µM in the test on HL-60(TB) leukemia; 18.7 µM with HS 578T breast; 27.2 µM in the test on IGROV1 ovarian; 66.6 µM in the test with MDA-MB-231 breast; 25.7 µM with OVCAR-3 ovarian. Further, the TGI in the test with SK-MEL-2 melanoma was 27.8 µM; in the test with SK-MEL-5 melanoma it was 42.2 µM; in the test with UO-31 renal it was 24.6 µM.
